{"source": "patent US20060234960A1", "about": "“Methods and compositions for increasing the safety and efficacy of albumin-binding drugs” (priority 2005, published 2006)", "key": {"brain cancer": {"test_system": "brain cancer", "conditions": "cited from earlier work"}, "[1]": {"conditions": "whole human blood; cited from earlier work"}, "[2]": {"conditions": "murine vs human blood; cited from earlier work"}, "human serum albumin [3]": {"molecular_target": "T1, human serum albumin (Homo sapiens, UniProt P02768)", "T1 sequence (P02768 25-609)": "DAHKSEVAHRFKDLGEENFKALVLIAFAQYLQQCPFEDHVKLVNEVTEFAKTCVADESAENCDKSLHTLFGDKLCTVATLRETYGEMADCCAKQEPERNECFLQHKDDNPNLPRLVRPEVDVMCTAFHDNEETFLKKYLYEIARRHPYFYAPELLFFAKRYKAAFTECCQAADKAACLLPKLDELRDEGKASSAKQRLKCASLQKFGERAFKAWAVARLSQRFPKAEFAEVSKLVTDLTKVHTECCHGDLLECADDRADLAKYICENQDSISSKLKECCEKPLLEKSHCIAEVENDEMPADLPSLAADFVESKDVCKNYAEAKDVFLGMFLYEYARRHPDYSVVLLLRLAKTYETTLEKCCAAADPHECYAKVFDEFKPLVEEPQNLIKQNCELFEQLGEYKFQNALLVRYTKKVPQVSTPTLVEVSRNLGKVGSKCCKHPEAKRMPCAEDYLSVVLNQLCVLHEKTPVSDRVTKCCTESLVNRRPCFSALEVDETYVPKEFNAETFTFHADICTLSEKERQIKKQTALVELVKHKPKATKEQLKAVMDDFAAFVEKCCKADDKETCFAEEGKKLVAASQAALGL", "text": "Salus™ Drug Combinatorial Agents were identified using the CADEX knowledge base."}, "[4]": {"test_system": "human MDA-MB-435S breast carcinoma cell line", "experiment": "Cytotoxicity for breast cancer cells (MDA-MB-435S), XTT", "format": "cell-based", "conditions": "for ability to kill breast cancer cells in the presence of Salus (301): FIGS. 9-13, with vs without Salus agent", "method": "To further validate the concept in vitro studies using human breast cell carcinoma line and clinically approved blood concentrations of both clofibrate (301) and 10-hydroxycamptothecin were performed. FIG. 9 graphs the results GI 50 below. […] Additionally at clinically approved concentrations of both drugs in the presence of blood concentrations of human serum albumin, without Salus, approximately 33% of the cells were surviving at the end of the test vs. approximately 2%.\n(§1) We have decided to use the human MRC-5 lung fibroblast cell line to test IC50 of 10-hydroxycamptothecin (10-HC) in the absence and presence of Salus™ 301. The ED50 values were determined with human MDA-MB-435S breast carcinoma cell line.\nCytotoxicity of DRUG for Breast Cancer Cells (MDA-MB-435S)\n• 1. Count number of cells in flask. The final concentration of cells in each well should be between 5000-40000 cells/well (100,000-800,000 cells/ml). Dilute cells to proper concentration using Leibovitz's L-15 supplemented with 10% FBS and 0.1% insulin. Add 100 μl of cells into the microplate using repeating pipette. Be sure to vortex tube before adding to plate. Allow plate to incubate for 24 hours at 37° C. (Note: wells A1-H1, A1-H11 will contain only medium for evaporation purposes. Well A2 will contain no cells, only medium and will be used in experiment.) • Medium: Leibovitz's L-15 medium. • 2. Albumin: • Make 60 mg/ml in HSA (900 mg HSA+13.3 ml medium). Use Sigma HSA A-8763 • Make 5 ml of 60 mg/ml HSA with 2 mM 301 (2.33 mg 301 for 5.4 ml HSA). • Make 1 ml of 2 mM 301 in medium (0.53 mg in 1.23 ml medium). Dilute 200 μl in 200 μl medium to make 1 mM 301. • Make DRUG stock in DMSO Stock molarity=1000× conc. of highest test sample (ex. if 2 μM is needed, then stock needs to be 2 mM.) This will vary with each drug based on dosage of drug. For Cancer Cells, the highest concentration should be 1-2 times greater than the dosage for the drug. • 3. Make the test concentrations in advance of testing (5-24 hours prior to testing): The test concentrations will be made at double the concentration, 100 μl will be added into the 100 μl of the cells, making the final concentrations the same as those shown on the microplate chart. Change medium in plate (using the L-15 supplemented with 10% FBS and 0.1% insulin prior to loading test concentrations. • 100% cells: 100 μl of medium • medium: 100 μl of medium • 0.5 mM 301: add 100 μl of 1 mM 301 made in medium • 0.5 mM 301 with HSA: add 100 μl of 1 mM 301 with 30 mg/ml HSA • 1 mM 301: add 100 μl of 2 mM 301 made in medium • 1 mM 301 with HSA: add 100 μl of 2 mM 301 with 30 mg/ml HSA • 30 mg/ml HSA: add 100 μl of 60 mg/ml HSA made in medium (2 wells) • Dosage of DRUG: make a 1:500 dilution, using medium as the diluent. Make 2-fold serial dilutions into 300 μl of medium (600 μl total volume). Be sure to make dilutions before adding into wells. • 30×HSA & Dosage DRUG: Follow same serial dilution procedure as above with the DRUG, but the diluent should be medium +60 mg/ml HSA • 30×HSA, 0.5 mM 301 & DRUG: Follow same serial dilution procedure as above with the DRUG, but the diluent should be medium +60 mg/ml HSA with 1 mM 301 • 30×HSA, 1 mM 301 & 2 μM DRUG: Follow same serial dilution procedure as above with the DRUG, but the diluent should be medium +60 mg/ml HSA with 2 mM 301. • Allow these to incubate at 37° C. overnight. After the microplate has been incubating for 24 hours, add the above test concentrations into the appropriate well (see Chart for microplate information). Allow plate to incubate an additional 48 hours. After 48 Hours: • 4. Under sterile hood, reconstitute the XTT vial with 5 ml of medium. • 5. Remove all liquid from wells. Wash with medium, remove, then fill wells with 200 μl of fresh medium. • 6. Add 40 μl of XTT to all wells. • 7. Allow wells to incubate 2 hours. • 8. Read the plate in the microplate reader using a 655 nm reading as a reference wavelength. The read at 450 nm. Subtract the 655 nm reading from the 450 reading. […]"}, "[5]": {"test_system": "human MRC-5 lung fibroblast cell line", "experiment": "IC50 in human MRC-5 lung fibroblast cell line (in vitro toxicity)", "format": "cell-based", "conditions": "best case scenario", "text": "Therapeutic index is defined as the ratio of the median lethal dose (LD50) to the median effective dose (ED50). […] While animal tests are at best only about 65 percent predictive of human acute toxicity, a combination of four cell tests can determine of a substance is dangerous to humans with better than 80 percent precision.\nas §1"}, "human serum albumin [6]": {"molecular_target": "T1, human serum albumin", "experiment": "X-ray structure of human serum albumin complexes (binding site)", "conditions": "X-ray crystallography"}, "[7]": {"test_system": "human cancer xenografts lines", "conditions": "immunodeficient (nude) mice; cited from earlier work"}, "human serum albumin [8]": {"molecular_target": "T1, human serum albumin", "conditions": "carboxylate vs lactone form; cited from earlier work"}, "human serum albumin [9]": {"molecular_target": "T1, human serum albumin", "conditions": "Topotecan alone, comparison for Camptothecin with Salus agent; cited from earlier work"}}, "note": "pIC50: −log10 of the molar value."}
{"smiles": "CC[C@@]1(O)C(=O)OCc2c1cc1n(c2=O)Cc2cc3c(N)cccc3nc2-1", "note": "[9-aminocamptothecin]", "values": [{"measurement": "efficacy of therapy", "setting": "brain cancer; 99 brain cancer patients, intravenous", "result": "grossly ineffective"}, {"measurement": "drug in the carboxylate form", "setting": "brain cancer; patients treated intravenously, stated as likelihood", "result": 99.5, "unit": "%"}, {"measurement": "drug remaining in the lactone form at equilibrium", "setting": "[1]", "result": 0.5, "unit": "%"}, {"measurement": "lactone levels in murine blood relative to human blood", "setting": "[2]", "result": "approximately 100 fold"}]}
{"smiles": "CC[C@@]1(O)C(=O)OCc2c1cc1n(c2=O)Cc2cc3c([N+](=O)[O-])cccc3nc2-1", "note": "[9-nitro-Camptothecin]", "values": [{"measurement": "increase of active lactone form with the selected Salus agent", "setting": "human serum albumin [3]", "result": "Equally dramatic results"}]}
{"smiles": "CC[C@@]1(O)C(=O)OCc2c1cc1n(c2=O)Cc2cc3cc(O)ccc3nc2-1", "note": "[10-HC, 10-hydroxycamptothecin]", "values": [{"measurement": "ability to kill breast cancer cells in the presence of Salus (301)", "setting": "[4]", "result": "improvement"}, {"measurement": "cells surviving at the end of the test", "setting": "[4]; with Salus (clofibrate, 301), clinically approved concentrations of both drugs, blood concentrations of human serum albumin", "result": "approximately 2%"}, {"measurement": "improvement in the GI 50 values", "setting": "[4]; with clofibrate (301) vs without, blood concentrations of human serum albumin", "result": "approximately 16 fold"}, {"measurement": "cells surviving at the end of the test", "setting": "[4]; without Salus, clinically approved concentration, blood concentrations of human serum albumin", "result": "approximately 33%"}, {"measurement": "pIC50", "setting": "[5]; with 0.5 mM 301", "result": 5.22}, {"measurement": "pIC50", "setting": "[5]; with 1.0 mM 301", "result": 5.48}, {"measurement": "pIC50", "setting": "[5]; without 301", "result": 5.17}, {"measurement": "increase of active lactone form with the selected Salus agent", "setting": "human serum albumin [3]", "result": "Equally dramatic results"}]}
{"smiles": "CC[C@@]1(O)C(=O)OCc2c1cc1n(c2=O)Cc2cc3ccccc3nc2-1", "note": "[Camptothecin]", "values": [{"measurement": "binding location on human serum albumin", "setting": "human serum albumin [6]", "result": "distinct pocket within IB subdomain"}, {"measurement": "drug remaining in the lactone form at equilibrium", "setting": "[1]", "result": 5.3, "unit": "%"}, {"measurement": "number of human cancer xenografts lines in which effective", "setting": "[7]", "result": "more than 13"}, {"measurement": "enhancement in affinity for HSA of carboxylate form over lactone form", "setting": "human serum albumin [8]", "result": 150, "unit": "fold"}]}
{"smiles": "COc1cccc2c1C(=O)c1c(O)c3c(c(O)c1C2=O)C[C@@](O)(C(=O)CO)C[C@@H]3O[C@H]1C[C@H](N)[C@H](O)[C@H](C)O1", "note": "[Doxorubicin]", "values": [{"measurement": "ability to kill breast cancer cells in the presence of Salus (301)", "setting": "[4]", "result": "improvement"}]}
{"smiles": "COc1cccc2c1C(=O)c1c(O)c3c(c(O)c1C2=O)C[C@@](O)(C(=O)CO)C[C@@H]3O[C@H]1C[C@H](N)[C@@H](O)[C@H](C)O1", "note": "[Epirubicin]", "values": [{"measurement": "ability to kill breast cancer cells in the presence of Salus (301)", "setting": "[4]", "result": "improvement"}]}
{"smiles": "CCc1c2c(nc3ccc(O)cc13)-c1cc3c(c(=O)n1C2)COC(=O)[C@]3(O)CC", "note": "[SN-38]", "values": [{"measurement": "drug remaining in the lactone form at equilibrium", "setting": "[1]", "result": 19.5, "unit": "%"}]}
{"smiles": "COc1cc([C@@H]2c3cc4c(cc3[C@@H](O[C@@H]3O[C@@H]5CO[C@@H](c6cccs6)O[C@H]5[C@H](O)[C@H]3O)[C@H]3COC(=O)[C@H]23)OCO4)cc(OC)c1O", "note": "[Teniposide]", "values": [{"measurement": "ability to kill breast cancer cells in the presence of Salus (301)", "setting": "[4]", "result": "improvement"}]}
{"smiles": "CC[C@@]1(O)C(=O)OCc2c1cc1n(c2=O)Cc2cc3c(CN(C)C)c(O)ccc3nc2-1", "note": "[Topotecan]", "values": [{"measurement": "drug remaining in the lactone form at equilibrium", "setting": "[1]", "result": 11.9, "unit": "%"}, {"measurement": "ability to kill breast cancer cells in the presence of Salus (301)", "setting": "[4]", "result": "improvement"}, {"measurement": "level of active lactone form (comparison value)", "setting": "human serum albumin [9]", "result": 12, "unit": "%"}]}
